# In patent publication US12612412B2, “Antiviral heterocyclic compounds” (Enanta Pharmaceuticals, Inc., priority 2021, dated 2026):
# System: genotype A, "Long" strain RSV
# Experiment: RSV-A assay (CPE protection in Hep-2 cells, ATPlite readout)
# Type: cell-based, Human respiratory syncytial virus (HRSV)
# Details: human respiratory syncytial virus, RSV-A Long strain, MOI 0.1, CPE protection, read-out: Human RSV-A (“Long”) EC50
# Outline: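 In this cytopathic-effect protection format, infected Hep-2 cultures (MOI 0.1) are exposed to compound for 5 days. Surviving cell ATP is quantified with ATPlite, and EC50 is determined.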
row,EC50,SMILES
1,< 200 nM,COc1cc(C(=O)NC[C@](O)(c2cc3c(c(-c4cc(F)ccc4F)n2)OC[C@]3(C)C(N)=O)C2CC2)cc2cn(C3CC3)nc12 [Example 1282]
2,< 200 nM,COc1cc(C(=O)NC[C@](O)(c2cc3c(c(-c4ccc5c(c4)OC(F)(F)O5)n2)OC[C@]3(C)C(N)=O)C2CC2)cc2sc(C)nc12 [Example 1291]
3,> 200 nM,C[C@]1(C(N)=O)COc2c1cc([C@@](O)(CNC(=O)c1ccc3nc(C4CC4)sc3c1)C1CC1)nc2-c1ccc2c(c1)OC(F)(F)O2 [Example 1292]
4,< 200 nM,COc1cc(C(=O)NC[C@](O)(c2cc3c(c(-c4ccc5c(c4)OC(F)(F)O5)n2)OC[C@]3(C)C(N)=O)C2CC2)cc2sc(C3CC3)nc12 [Example 1293]

# Continued, compound first:
row,SMILES,EC50
1,COc1cc(C(=O)NC[C@](O)(c2cc3c(c(-c4cccc(Cl)c4F)n2)OC[C@]3(C)C(N)=O)C2CC2)cc2cn(C3CC3)nc12 [Example 1283],< 200 nM
2,COc1cc(C(=O)NC[C@](O)(c2cc3c(c(-c4c(Cl)ccc(F)c4F)n2)OC[C@]3(C)C(N)=O)C(F)(F)F)cc2cn(C3CC3)nc12 [Example 1284],< 200 nM
3,COc1cc(C(=O)NC[C@](O)(c2cc3c(c(-c4cc(F)cc(Cl)c4Cl)n2)OC[C@]3(C)C(N)=O)C2CC2)cc2cn(C3CC3)nc12 [Example 1285],< 200 nM
4,COc1cc(C(=O)NC[C@](O)(c2cc3c(c(-c4cccc(Cl)c4Cl)n2)OC[C@]3(C)C(N)=O)C2CC2)cc2cn(C3CC3)nc12 [Example 1286],< 200 nM
5,[2H]C([2H])([2H])c1nc2c(OC)cc(C(=O)NC[C@](O)(c3cc4c(c(-c5cc(Cl)c(F)cc5F)n3)OC[C@]4(C)C(N)=O)C3CC3)cc2cc1Cl [Example 1287],< 200 nM
6,[2H]C([2H])([2H])c1nc2c(OC)cc(C(=O)NC[C@](O)(c3cc4c(c(-c5cc(F)c(F)cc5F)n3)OC[C@]4(C)C(N)=O)C3CC3)cc2cc1Cl [Example 1288],< 200 nM
7,COc1cc(C(=O)NC[C@](O)(c2cc3c(c(-c4c(F)ccc(Cl)c4Cl)n2)OC[C@]3(C)C(N)=O)C2CC2)cc2cn(C3CC3)nc12 [Example 1289],< 200 nM
8,CNC(=O)[C@@]1(C)COc2c1cc([C@@](O)(CNC(=O)c1cc(OC)c3nn(C4CC4)cc3c1)C1CC1)nc2-c1ccc(F)cc1 [Example 1290],< 200 nM

# System: HMPV clinical isolate TN/1501/A1
# Experiment: HMPV antiviral assay Method-B (clinical isolate TN/1501/A1 in LLC-MK2 cells, ATP-Lite readout)
# Type: cell-based, Human metapneumovirus (HMPV)
# Details: human metapneumovirus, LLC-MK2, 144 h, hMPV WT1501 (clinical isolate TN/1501/A1), 6 days
# Method: In vitro HMPV antiviral activity was evaluated using the clinical isolate TN/1501/A1 and LLC-MK2 cells (ATCC #CCL-7), an immortalized kidney epithelial cell line from Macaca mulatta. Compounds were resuspended in dimethyl sulfoxide (DMSO) at 10 mM and added to a 384-well source plate. The compounds were diluted and transferred onto 384-well assay plates using the Echo-650 automated liquid handling system (Beckman Coulter, Indiana). The test compounds were assessed in duplicate at a top concentration of 10 μM followed by 3-fold serial dilutions to give a total of 10 concentration points. DMSO control wells were also included on the assay plates and were either infected or not, acting as positive and negative controls. TN/1501/A1 virus infections were performed in-suspension with LLC-MK2 cells. The cells were washed twice with PBS and removed from the cell-culture flask with 0.25% trypsin-EDTA (Thermo Fisher Scientific, MA). The trypsin-EDTA was inactivated by resuspending in 2% fetal bovine serum (FBS) and OptiMEM (ThermoFisher Scientific, MA) containing 1% penicillin-streptomycin. Cells were pelleted by centrifuging for 5 minutes at 800 rpm, the supernatant was removed, and cells were suspended in PBS plus 100 μg/mL CaCl2). This step was performed twice. Cells were then resuspended in serum-free (SF)-OptiMEM containing 4 μg/mL TPCK-Trypsin (Sigma Aldrich, MO), 1% penicillin-streptomycin (ThermoFisher Scientific, MA) and 100 μg/mL CaCl2). Cells were counted and seeded at a density of 5,000 cells/well, 12.5 μL/well. Virus infections were done at a multiplicity of infection (MOI) of 0.014 with 12.5 μL added per well. SF-OptiMEM, 12.5 μL/well, was added to the appropriate wells to serve as a virus-free negative control for the assay. The final concentration of TPCK-trypsin was 2 μg/mL. Plates were incubated at 37° C., 5% CO2 for 6 days. After 6 days incubation, 12.5 μL of ATP-Lite (PerkinElmer, MA) was added to each well and the raw luminescence values were determined using the Envision 2104 (Perkin Elmer, MA). The average of the raw luminescence values for the cells and virus only positive control wells was subtracted from all conditions tested and the percent cell health was determined by dividing these values by the average of the cells only negative control wells. EC50 values were then calculated by non-linear regression using a four-parameter curve logistic equation. The curve fit model employed was XLFit Dose Response One Site Model 200: y=(A+(B/(1+((x/C)^D)))), where A is the minimum y value, B is the maximum y value, C is the log EC50 value, and D is the slope factor. […] EC50 ranges are as follows: A<0.5 μM; B>0.5 μM.
row,EC50,SMILES
1,< 500 nM,C[C@]1(C(N)=O)COc2c1cc([C@@](O)(CNC(=O)c1ccc3nn(C4CC4)cc3c1)C1CC1)nc2-c1cc(Cl)c(F)cc1F [Example 690]
2,< 500 nM,COc1cc(C(=O)NC[C@](O)(c2cc3c(c(-c4ccc5c(c4)OC(F)(F)O5)n2)OC[C@]3(C)C(N)=O)C(F)(F)F)cc2cc(Br)c(C)nc12 [Example 770]
3,< 500 nM,COc1cc(C(=O)NC[C@](O)(c2cc3c(c(-c4ccc(F)cc4)n2)OC[C@]3(C)C(N)=O)C2CC2)cc2cc(Br)c(C)nc12 [Example 771]
4,> 500 nM,COc1cc(C(=O)NC[C@](O)(c2nc(-c3ccc4c(c3)OC(F)(F)O4)c3c(c2F)[C@](C)(C(N)=O)CO3)C2CC2)cc2cn(C3CC3)nc12 [Example 863]
5,> 500 nM,C[C@@]1(C(N)=O)COc2c(-c3ccc4c(c3)OC(F)(F)O4)nc([C@@](O)(CNC(=O)c3cc(Cl)c4nn(C5CC5)cc4c3)C3CC3)c(F)c21 [Example 864]
6,> 500 nM,COc1cc(C(=O)NC[C@](O)(c2nc(-c3ccc4c(c3)OC(F)(F)O4)c3c(c2F)[C@](C)(C(N)=O)CO3)C2CC2)cc2cn(C3(F)CC3)nc12 [Example 865]
7,> 500 nM,COc1cc(C(=O)NC[C@](O)(c2nc(-c3ccc4c(c3)OC(F)(F)O4)c3c(c2F)[C@](C)(C(N)=O)CO3)C2CC2)cc2cn(C(F)F)nc12 [Example 866]
8,> 500 nM,COc1cc(C(=O)NC[C@](O)(c2nc(-c3ccc4c(c3)OC(F)(F)O4)c3c(c2F)[C@](C)(C(N)=O)CO3)C2CC2)cc2cc(Cl)c(C)nc12 [Example 867]
9,< 500 nM,COc1cc(C(=O)NC[C@](O)(c2nc(-c3ccc4c(c3)OC(F)(F)O4)c3c(c2F)[C@@](C)(C(N)=O)CO3)C2CC2)cc2cc(Br)cnc12 [Example 869]
10,> 500 nM,COc1cc(C(=O)NC[C@](O)(c2nc(-c3ccc4c(c3)OC(F)(F)O4)c3c(c2F)[C@](C)(C(N)=O)CO3)C2CC2)cc2cc(Br)cnc12 [Example 870]

# Continued, compound first:
row,SMILES,EC50
1,COc1cc(C(=O)NC[C@](O)(c2cc3c(c(-c4csc5c(F)cccc45)n2)OC[C@]3(C)C(N)=O)C2(F)CC2)cc2cn(C3(F)CC3)nc12 [Example 629],< 500 nM
2,COc1cc(C(=O)NC[C@](O)(c2cc3c(c(-c4csc5c(F)cccc45)n2)OC[C@]3(C)C(N)=O)C2(F)CC2)cc2cn(C(F)F)nc12 [Example 630],< 500 nM
3,C[C@]1(C(N)=O)COc2c1cc([C@@](O)(CNC(=O)c1cc(Cl)c3nn(C4CC4)cc3c1)C1(F)CC1)nc2-c1csc2c(F)cccc12 [Example 631],< 500 nM
4,COc1cc(C(=O)NC[C@](O)(c2cc3c(c(-c4csc5c(F)cccc45)n2)OC[C@]3(C)C(N)=O)C2(F)CC2)cc2cn(C3CC3)nc12 [Example 632],< 500 nM
5,COc1cc(C(=O)NC[C@](O)(c2cc3c(c(-c4cc(Cl)c(F)c(Cl)c4)n2)OC[C@]3(C)C(N)=O)C2CC2)cc2cn(C3CC3)nc12 [Example 676],< 500 nM
6,COc1cc(C(=O)NC[C@](O)(c2cc3c(c(-c4cc(Cl)c(F)c(Cl)c4)n2)OC[C@]3(C)C(N)=O)C2CC2)cc2cn(C(F)F)nc12 [Example 677],> 500 nM
7,COc1cc(C(=O)NC[C@](O)(c2cc3c(c(-c4cc(Cl)c(F)c(Cl)c4)n2)OC[C@]3(C)C(N)=O)C2CC2)cc2cn(C3(F)CC3)nc12 [Example 678],< 500 nM
8,COc1cc(C(=O)NC[C@](O)(c2cc3c(c(-c4cc(Cl)c(F)c(Cl)c4)n2)OC[C@]3(C)C(N)=O)C2CC2)cc2cc(Br)cnc12 [Example 679],> 500 nM
9,C[C@]1(C(N)=O)COc2c1cc([C@@](O)(CNC(=O)c1cc(Cl)c3nn(C4CC4)cc3c1)C1CC1)nc2-c1cc(Cl)c(F)c(Cl)c1 [Example 680],> 500 nM
10,COc1cc(C(=O)NC[C@](O)(c2cc3c(c(-c4cc(Cl)c(F)c(Cl)c4)n2)OC[C@]3(C)C(N)=O)C2CC2)cc2cc(Cl)c(C)nc12 [Example 681],> 500 nM
11,Cc1cnc2c(Cl)cc(C(=O)NC[C@](O)(c3cc4c(c(-c5cc(Cl)c(F)c(Cl)c5)n3)OC[C@]4(C)C(N)=O)C3CC3)cc2c1 [Example 682],> 500 nM
12,COc1cc(C(=O)NC[C@](O)(c2cc3c(c(-c4ccc(Cl)c(F)c4F)n2)OC[C@]3(C)C(N)=O)C2CC2)cc2cc(Br)cnc12 [Example 689],< 500 nM
13,COc1cc(C(=O)NC[C@](O)(c2cc3c(c(-c4ccc(F)cc4)n2)OC[C@]3(C)C(N)=O)C(F)(F)F)cc2cc(Br)c(C)nc12 [Example 769],< 500 nM
14,COc1cc(C(=O)NC[C@](O)(c2cc3c(c(-c4ccc(F)cc4)n2)OC[C@]3(C)C(N)=O)C2(F)CC2)cc2cc(Br)c(C)nc12 [Example 772],< 500 nM
15,COc1cc(C(=O)NC[C@](O)(c2cc3c(c(-c4ccc(F)c(Br)c4F)n2)OC[C@]3(C)C(N)=O)C2CC2)cc2cc(Br)cnc12 [Example 803],< 500 nM
16,COc1cc(C(=O)NC[C@](O)(c2cc3c(c(-c4ccc(F)c(Br)c4F)n2)OC[C@]3(C)C(N)=O)C2CC2)cc2cc(Cl)c(C)nc12 [Example 804],< 500 nM
17,COc1cc(C(=O)NC[C@](O)(c2nc(-c3cc(Cl)c(F)cc3F)c3c(c2F)[C@](C)(C(N)=O)CO3)C2CC2)cc2cn(C3CC3)nc12 [Example 868],> 500 nM
